Experimental data from patent US20070249620A1, “Urea Derivative” (priority 2004, published 2007).

Legend:
mouse DGAT1 = biological target: T1, mouse DGAT1 (Mus musculus, UniProt Q9Z2A7); experiment: DGAT1 inhibitory effect test (microsome fraction, [14C]-oleoyl-CoA, triglyceride radioactivity by TLC); type: biochemical; settings: 0.5 h; concentration of the test compound 0.1 μg/ml; mouse DGAT1 microsomes, 23° C., 30 minutes; read-out: Inhibitory ratio
T1 construct: made in house; host or cells: insect cells (High Five, Sf9, Sf21, etc.), baculovirus expression system (Invitrogen)
T1 sequence (Q9Z2A7 1-498): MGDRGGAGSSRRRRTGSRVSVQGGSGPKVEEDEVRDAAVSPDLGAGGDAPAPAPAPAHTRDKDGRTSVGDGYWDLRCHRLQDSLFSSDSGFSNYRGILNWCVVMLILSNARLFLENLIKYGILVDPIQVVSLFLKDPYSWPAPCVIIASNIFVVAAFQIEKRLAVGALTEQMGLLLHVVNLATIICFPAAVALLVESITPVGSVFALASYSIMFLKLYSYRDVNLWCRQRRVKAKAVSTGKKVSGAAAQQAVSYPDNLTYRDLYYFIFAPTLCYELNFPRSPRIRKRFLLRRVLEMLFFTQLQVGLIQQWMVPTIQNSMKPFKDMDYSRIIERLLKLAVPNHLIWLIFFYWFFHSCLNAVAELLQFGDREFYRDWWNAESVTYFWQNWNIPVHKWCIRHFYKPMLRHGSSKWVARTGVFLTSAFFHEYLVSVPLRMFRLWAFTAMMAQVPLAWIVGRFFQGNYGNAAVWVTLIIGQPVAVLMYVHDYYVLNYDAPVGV
Procedure, shortened: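 Inhibition was scored from radiolabelled triglyceride separated by TLC, relative to vehicle and net of a 0-min background. The reaction ran for 30 min at room temperature (23 °C) in Tris-HCl pH 8.0 with MgCl2, BSA and Triton X-100. Substrates were 30 μM [14C]-oleoyl-CoA and 0.5 mM dioleoylglycerol, with mouse DGAT1 microsomes from baculovirus-infected insect cells as enzyme.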

Compound | melting point | inhibition at 0.1 µg/mL (mouse DGAT1) [%]
COc1ccc(C)cc1NC(=O)Nc1ccc(N2CCN(C(=O)Nc3ccc(NC(C)=O)cc3C(F)(F)F)CC2)nc1 [Example 188, 4-{5-[3-(2-methoxy-5-methyl-phenyl)-ureido]-pyridin-2-yl}-piperazine-1-carboxylic acid (4-acetylamino-2-trifluoromethyl-phenyl)-amide] | 175 to 177 °C | ≥ 50
COc1ccc(C)cc1NC(=O)Nc1ccc(N2CCN(C(=O)Cc3c(F)cccc3F)CC2)cc1 [Example 192, 1-(4-{4-[2-(2,6-difluoro-phenyl)-acetyl]-piperazin-1-yl}phenyl)-3-(2-methoxy-5-methyl-phenyl)-urea] | 213 to 215 °C | ≥ 50
COc1ccc(C)cc1NC(=O)Nc1ccc(N2CCN(C(=O)Oc3c(C)cccc3Cl)CC2)cc1 [Example 197, 4-{4-[3-(2-methoxy-5-methyl-phenyl)-ureido]-phenyl}-piperazine-1-carboxylic acid 2-chloro-6-methyl-phenyl ester] | 146 to 148 °C | ≥ 50
COc1ccc(C)cc1NC(=O)Nc1ccc(N2CCN(C(=O)Nc3c(C)cccc3Cl)C(C)C2)cc1 (stereo not shown) [Example 198, 4-{4-[3-(2-methoxy-5-methyl-phenyl)-ureido]-phenyl}-2-methyl-piperazine-1-carboxylic acid (2-chloro-6-methyl-phenyl)-amide] | 161 to 163 °C | ≥ 50
COc1ccc(C)cc1NC(=O)Nc1ccc(N2CCN(C(=O)Nc3c(C)cccc3C)C(C)C2)cc1 (stereo not shown) [Example 199, 4-{4-[3-(2-methoxy-5-methyl-phenyl)-ureido]-phenyl}-2-methyl-piperazine-1-carboxylic acid (2,6-dimethyl-phenyl)-amide] | 204 to 206 °C | ≥ 50
COc1ccc(C)cc1NC(=O)Nc1ccc(N2CCCN(C(=O)Nc3c(C)cccc3Cl)CC2)cc1 [Example 200, 4-{4-[3-(2-methoxy-5-methyl-phenyl)-ureido]-phenyl}-perhydro-1,4-diazepine-1-carboxylic acid (2-chloro-6-methyl-phenyl)-amide] | > 240 °C (dec.) | ≥ 50
COc1ccc(C)cc1NC(=O)Nc1ccc(N2CCCN(C(=O)Nc3c(C)cccc3C)CC2)cc1 [Example 201, 4-{4-[3-(2-methoxy-5-methyl-phenyl)-ureido]-phenyl}-perhydro-1,4-diazepine-1-carboxylic acid (2,6-dimethyl-phenyl)-amide] | > 240 °C (dec.) | ≥ 50
CCCCCCNC(=O)Nc1ccc(N2CCN(C(=O)Nc3c(C)cccc3Cl)CC2)cc1 [Example 206, 4-[4-(3-hexyl-ureido)-phenyl]-piperazine-1-carboxylic acid (2-chloro-6-methyl-phenyl)-amide] | 206 to 210 °C | ≥ 50
Cc1cccc(Cl)c1NC(=O)N1CCN(c2ccc(NC(=O)NC3CCCCC3)cc2)CC1 [Example 207, 4-[4-(3-cyclohexyl-ureido)-phenyl]-piperazine-1-carboxylic acid (2-chloro-6-methyl-phenyl)-amide] | > 260 °C (dec.) | ≥ 50
COc1ccc(C)cc1NC(=O)Nc1ccc(N2CCN(C(=O)Nc3ccc(OCCO)cc3C)CC2)cc1 [Example 208, 4-{4-[3-(2-methoxy-5-methyl-phenyl)-ureido]-phenyl}-piperazine-1-carboxylic acid [4-(2-hydroxy-ethoxy)-2-methyl-phenyl]-amide] | 174 to 176 °C | ≥ 50
COc1ccc(C)cc1NC(=O)Nc1ccc(N2CCN(C(=O)Nc3ccc(OCCO)cc3C(F)(F)F)CC2)cc1 [Example 209, 4-{4-[3-(2-methoxy-5-methyl-phenyl)-ureido]-phenyl}-piperazine-1-carboxylic acid [4-(2-hydroxy-ethoxy)-2-trifluoromethyl-phenyl]-amide] | 175 to 177 °C | ≥ 50
